This note sets out measurements from patent publication US6429204B1, “Method of inhibiting cancer growth” (University of Miami, priority 1997, dated 2002).

One data set has as its system COLO 205 Cells. In words: MTS cytotoxicity assay, COLO 205. To be noted: two days. For orientation: Formazan colour is commonly taken as a measure of viable cells.
The subject of a further data set is Dunning MAT LyLu cells. In words: Cytotoxic effect on MAT LyLu cells (trypan blue). It is filed as cell-based, rat. As to conditions: 24 hr or 48 hr exposure. The method, then:
Cell viability was estimated by trypan blue staining following exposure to the drugs. The results of these studies are summarized in FIG. 4A (24 hours) and FIG. 4B (48 hr). Data are presented as Mean±SEM from three separate experiments.

The test system of data set [1] is HIV-related Kaposi's Sarcoma. In words: Oral dose escalation study in patients with Kaposi's Sarcoma. It is filed as in vivo, human. The method, then:
CMT-3 was administered orally, once daily, in a dose escalating fashion to 3-6 subjects per dose cohort. Patients with symptomatic visceral Kaposi's Sarcoma or severe tumor-associated edema were excluded. Antiretroviral therapy was permitted but not required. Study endpoints were grade 3 or grade 4 toxicity or progression of disease. Preliminary analysis was performed. Eighteen patients received CMT-3 in dosing cohorts of 25, 50 and 70 mg/m^2/day. The average age was 39 years (range, 25-57). Median CD4 count was 352 cells/mm^3 (range, 6-694). Prior therapy for Kaposi's Sarcoma was reported by 16 (89%) patients; prior antiretroviral therapy by 16 (89%) patients. Half of the patients had ≧50 lesions at baseline. Grade 3 or higher events, which were possibly/definitely related to study drug, were reported by 6 patients and consisted of photosensitivity, increased pain, headache, rash and pruritis.

In data set [2] the test system is MMP-9 (gelatinase B) expressed by E-10 cells. In words: MMP protein expression by Western blot of conditioned medium, E-10 cells. The format is cell-based, human. To be noted: 24 hr, serum-free medium. The method, then: Two human cancer-derived cell lines were obtained from the American Type Culture Collection (ATCC) in Rockville, Md. The cell lines included COLO 205, a human colon cancer-derived cell line that expresses MMP-2 or gelatinase A, and E-10, a human breast cancer-derived cell line that expresses MMP-9 or gelatinase B.
Cells of each cell line were cultured in 75 cm^2 T-flasks in RPMI-1640 (Gibco) with 10% heat-inactivated fetal bovine serum (FBS) containing 100 units/mL penicillin and 100 μg/mL streptomycin. The cells were fed every two days, and passaged every week. The cells were grown to 80-90% confluence, and then the FBS-containing medium was replaced with a serum-free medium (SFM). CMT-3 (CollaGenex Pharmaceuticals, Inc., Newtown, Pa.) was added in several concentrations to the cells in SFM. Conditioned medium was collected after 24 hr, centrifuged to remove cell debris, and then assayed for MMP protein expression by Western blot using a conventional technique, and scanning the blots with a laser densitometer.
Background: A western blot detects proteins with antibodies after separation by electrophoresis.

The target in a further data set is T1, Gelatinase B (Homo sapiens, UniProt P14780).
T1 construct: endogenous in cells; host or cells: C8161
In words: Zymography with densitometry of C8161 conditioned medium, gelatinase B. It is filed as cell-based. To be noted: 50 μg/mL, 24 hr. The method, then: Six hundred thousand (6×10^5) C8161 cells were seeded per well in a 12-well dish coated with a laminin/collagen IV/gelatin matrix in DMEM plus Mito+ and 0.1% gentamicin sulfate. After approximately 1 hr incubation to allow the cells to attach, 50 μg/mL of either doxycycline or one of the other CMTs was added per well and the dish then placed in a 37° C. humidified 5% CO2 incubator. After 24 hr, the supernatants were removed and centrifuged to remove any cells or debris. One volume of Laemmli sample buffer minus reductant was added to two volumes of the medium, and this sample electrophoresed without prior heating or boiling on a 10% SDS-PAGE containing 0.1% gelatin (samples normalized based on the same number of cells per volume of medium per time of incubation). After electrophoresis, the gels were washed with gentle shaking at room temperature for 30 min in 50 mM Tris-HCl (pH 7.5) plus 2.5% TRITON® X100 plus 50 μg/mL of the corresponding CMT used in the original treatment. The gel was then placed in incubation buffer (50 mM Tris-Cl/10 mM CaCl2/150 mM NaCl/0.05% NaN3) also containing 50 μg/mL of the corresponding CMT, and incubated at 37° C. for 20-24 hr. The gels were stained with Coomassie BBR-250, then destained with 10% methanol/10% acetic acid in water until the wash remained clear. A photographic negative of the gel was digitized using a video camera and Snappy Video Snapshot system (Play Inc., Rancho Cordova, Calif.). An integrated density was determined for each of the cleared zones of proteolysis using the software ImagePC8α (freely available from the National Institutes of Health), and the corresponding changes in gelatinolytic activities reported compared to the control samples normalized to a value of 1.0.

T1 sequence (P14780 94-707): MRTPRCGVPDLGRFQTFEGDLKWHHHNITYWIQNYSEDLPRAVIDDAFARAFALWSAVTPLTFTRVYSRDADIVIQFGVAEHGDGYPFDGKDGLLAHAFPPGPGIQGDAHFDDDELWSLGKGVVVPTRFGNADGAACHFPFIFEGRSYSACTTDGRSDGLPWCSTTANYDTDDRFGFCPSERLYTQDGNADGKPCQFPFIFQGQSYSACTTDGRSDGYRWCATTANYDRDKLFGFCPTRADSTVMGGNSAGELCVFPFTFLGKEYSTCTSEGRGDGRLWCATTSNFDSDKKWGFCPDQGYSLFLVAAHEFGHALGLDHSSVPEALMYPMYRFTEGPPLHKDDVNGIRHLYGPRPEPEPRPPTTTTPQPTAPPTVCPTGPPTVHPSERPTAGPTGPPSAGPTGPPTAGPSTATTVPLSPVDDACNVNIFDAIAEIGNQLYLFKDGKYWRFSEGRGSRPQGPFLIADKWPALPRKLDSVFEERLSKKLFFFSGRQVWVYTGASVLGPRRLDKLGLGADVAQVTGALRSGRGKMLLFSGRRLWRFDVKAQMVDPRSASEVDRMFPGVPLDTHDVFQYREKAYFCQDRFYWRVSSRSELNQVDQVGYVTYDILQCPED
Method for COLO 205 Cells: A panel of chemically modified tetracycline compounds and doxycycline were tested for cytotoxicity against two carcinomas: COLO 205 (a human colon carcinoma-derived cell line) and the E-10 clone of MDA-MB-231 (a human breast carcinoma-derived cell line). Cytoxicity was measured using a conventional assay for viability with a tetrazolium salt (MTS). Cells were grown in media containing the CMTs at concentrations ranging from 5 μM to 100 μM for two days. The cells were then incubated with the MTS for several hours before removal of the supernatant medium for determination of formazan, which is generated only by the viable cells. Results are expressed as percent cytotoxicity, which is simply the percent decline in measured formazan concentration in the sampled medium.

Regarding `NC(=O)C1=C(O)CC2CC3Cc4cccc(O)c4C(=O)C3=C(O)C2(O)C1=O` (stereo not shown) [CMT-3, 6-demethyl-6-deoxy-4-de(dimethylamino)tetracycline], the percent cytotoxicity was determined as 25.9% with COLO 205 Cells (5 μM); 38.9% in the data set on COLO 205 Cells (10 μM); 37% in the data set on COLO 205 Cells (20 μM); 86.7% in the data set on COLO 205 Cells (50 μM); 86.7% with COLO 205 Cells (100 μM). Moreover, the “inhibition of cell proliferation (rank among tested drugs)” value with Dunning MAT LyLu cells was “most effective inhibitors of cell proliferation”. Further, the Partial responses in data set [1] (25 mg/m^2/day cohort) came out at 2 patients; in data set [1] (50 mg/m^2/day cohort), 2 patients; in data set [1] (70 mg/m^2/day cohort), 3 patients; in data set [1] (all cohorts, eighteen patients, oral once daily), 7 patients. In addition, in data set [1] (25 mg/m^2/day cohort), the photosensitivity entry was “no photosensitivity was observed”. In addition, the “Grade 3 or higher events possibly/definitely related to study drug” value in data set [1] (eighteen patients, 25, 50 and 70 mg/m^2/day) is given as 6 patients. In addition, in data set [1] (oral once daily, particularly 25 mg/m^2/day), the tolerability entry is recorded as “well tolerated”. Also, the “Percent Inhibition of MMP Protein Expression” value in data set [2] (E-10, MMP-9, 10 μM) came out at 45.3%; in data set [2] (E-10, MMP-9, 20 μM), 60.8%. Further, at Gelatinase B, the “Gelatinase B, integrated density normalized to control 1.00” value worked out at 0.03.
